± gives the expanded uncertainty stated by the source.
How the values were obtained:
[1] = Liquid; for vapor or sublimation pressure: Ebulliometric method (Recirculating still); for mass density: 101 kPa, Vibrating tube method
[2] = xn = mol fraction of the nth substance listed; settings: 101.33 kPa, Liquid, Vibrating tube method, x2 = 0
[3] = excess molar enthalpy (molar enthalpy of mixing); xn = mol fraction of the nth substance listed; settings: 298.15 K, 101 kPa, Liquid, isothermal titration calorimeter

c1ccccc1 [benzene]
[1]
Settings | vapor or sublimation pressure [kPa]
338.15 K | 62.1 ± 3.1
348.15 K | 86.4 ± 3.1

C1CCCCC1 [cyclohexane]
[1]
Settings | vapor or sublimation pressure [kPa]
338.15 K | 61.5 ± 3
348.15 K | 84.7 ± 3.1

c1ccncc1 [pyridine]
[1]
Settings | mass density [kg/m3] | vapor or sublimation pressure [kPa]
298.15 K | 978.01 ± 0.11 | –
308.15 K | 967.91 ± 0.11 | –
318.15 K | 957.76 ± 0.11 | –
328.15 K | 947.56 ± 0.11 | –
338.15 K | 937.3 ± 0.11 | –
353.15 K | – | 32.3 ± 3
363.15 K | – | 45.9 ± 3
373.15 K | – | 63.7 ± 3

c1ccncc1 [pyridine] + c1cc[nH]c1
[2]
Settings | mass density [kg/m3]
298.15 K | 978.01 ± 0.11
308.15 K | 967.91 ± 0.11
318.15 K | 957.76 ± 0.11
328.15 K | 947.56 ± 0.11
338.15 K | 937.3 ± 0.11

c1cc[nH]c1 [pyrrole]
[1]
Settings | mass density [kg/m3] | vapor or sublimation pressure [kPa]
298.15 K | 965.54 ± 0.11 | –
308.15 K | 956.83 ± 0.11 | –
318.15 K | 948.03 ± 0.11 | –
328.15 K | 939.14 ± 0.12 | –
338.15 K | 930.13 ± 0.12 | 9.4 ± 3
348.15 K | – | 14.6 ± 3
353.15 K | – | 18 ± 3
358.15 K | – | 21.9 ± 3
363.15 K | – | 26.8 ± 3
373.15 K | – | 38.5 ± 3

c1cc[nH]c1 [pyrrole] + C1CCCCC1
[3]
Settings | excess molar enthalpy [kcal/mol]
x1 = 0.015 | 0.056 ± 0.00311
x1 = 0.03 | 0.0991 ± 0.00287
x1 = 0.0451 | 0.131 ± 0.00263
x1 = 0.0601 | 0.155 ± 0.00239
x1 = 0.0752 | 0.175 ± 0.00263
x1 = 0.0905 | 0.192 ± 0.00263
x1 = 0.1057 | 0.207 ± 0.00287
x1 = 0.1208 | 0.221 ± 0.00287
x1 = 0.1358 | 0.233 ± 0.00311
x1 = 0.1543 | 0.246 ± 0.00311
x1 = 0.1692 | 0.255 ± 0.00335
x1 = 0.184 | 0.264 ± 0.00335
x1 = 0.1989 | 0.272 ± 0.00359
x1 = 0.2139 | 0.279 ± 0.00359
x1 = 0.2288 | 0.286 ± 0.00359
x1 = 0.2437 | 0.292 ± 0.00359
x1 = 0.2587 | 0.297 ± 0.00382
x1 = 0.2737 | 0.302 ± 0.00382
x1 = 0.2887 | 0.307 ± 0.00382
x1 = 0.3037 | 0.311 ± 0.00382
x1 = 0.3186 | 0.315 ± 0.00406
x1 = 0.3337 | 0.319 ± 0.00406
x1 = 0.3485 | 0.322 ± 0.00406
x1 = 0.3677 | 0.327 ± 0.00406
x1 = 0.3829 | 0.33 ± 0.00406
x1 = 0.3982 | 0.333 ± 0.0043
x1 = 0.4135 | 0.335 ± 0.0043
x1 = 0.4287 | 0.337 ± 0.0043
x1 = 0.444 | 0.338 ± 0.0043
x1 = 0.4592 | 0.34 ± 0.0043
x1 = 0.4745 | 0.341 ± 0.0043
x1 = 0.4898 | 0.341 ± 0.0043
x1 = 0.505 | 0.341 ± 0.0043
x1 = 0.5203 | 0.341 ± 0.0043
x1 = 0.5355 | 0.34 ± 0.0043
x1 = 0.5507 | 0.34 ± 0.0043
x1 = 0.566 | 0.338 ± 0.0043
x1 = 0.5812 | 0.337 ± 0.0043
x1 = 0.5964 | 0.335 ± 0.0043
x1 = 0.6116 | 0.332 ± 0.00406
x1 = 0.6269 | 0.329 ± 0.00406
x1 = 0.6421 | 0.325 ± 0.00406
x1 = 0.6573 | 0.321 ± 0.00406
x1 = 0.6725 | 0.317 ± 0.00406
x1 = 0.6878 | 0.312 ± 0.00406
x1 = 0.703 | 0.306 ± 0.00382
x1 = 0.7182 | 0.298 ± 0.00382
x1 = 0.731 | 0.289 ± 0.00359
x1 = 0.7468 | 0.28 ± 0.00359
x1 = 0.7627 | 0.269 ± 0.00359
x1 = 0.7786 | 0.259 ± 0.00335
x1 = 0.7945 | 0.248 ± 0.00311
x1 = 0.8104 | 0.236 ± 0.00311
x1 = 0.8263 | 0.223 ± 0.00287
x1 = 0.8421 | 0.209 ± 0.00287
x1 = 0.858 | 0.193 ± 0.00263
x1 = 0.874 | 0.177 ± 0.00263
x1 = 0.8899 | 0.159 ± 0.00237
x1 = 0.9058 | 0.139 ± 0.0022
x1 = 0.9218 | 0.119 ± 0.00206
x1 = 0.9377 | 0.0962 ± 0.00194
x1 = 0.9537 | 0.0726 ± 0.00182
x1 = 0.9691 | 0.0481 ± 0.00177
x1 = 0.9846 | 0.0222 ± 0.00172

c1cc[nH]c1 [pyrrole] + CCCCCO
[3]
Settings | excess molar enthalpy [kcal/mol]
x1 = 0.0374 | 0.00848 ± 0.00055
x1 = 0.0962 | 0.0373 ± 0.000789
x1 = 0.1388 | 0.0644 ± 0.00112
x1 = 0.1801 | 0.0927 ± 0.00141
x1 = 0.2202 | 0.12 ± 0.00172
x1 = 0.259 | 0.147 ± 0.00201
x1 = 0.2967 | 0.171 ± 0.00229
x1 = 0.3333 | 0.193 ± 0.00263
x1 = 0.3689 | 0.212 ± 0.00263
x1 = 0.4034 | 0.229 ± 0.00287
x1 = 0.437 | 0.243 ± 0.00311
x1 = 0.4696 | 0.254 ± 0.00311
x1 = 0.5014 | 0.263 ± 0.00335
x1 = 0.5323 | 0.269 ± 0.00335
x1 = 0.5604 | 0.271 ± 0.00359
x1 = 0.5624 | 0.273 ± 0.00359
x1 = 0.5804 | 0.272 ± 0.00335
x1 = 0.5916 | 0.275 ± 0.00359
x1 = 0.6004 | 0.273 ± 0.00335
x1 = 0.6202 | 0.275 ± 0.00359
x1 = 0.6204 | 0.272 ± 0.00335
x1 = 0.6404 | 0.271 ± 0.00335
x1 = 0.648 | 0.272 ± 0.00335
x1 = 0.6604 | 0.268 ± 0.00359
x1 = 0.6616 | 0.27 ± 0.00382
x1 = 0.6804 | 0.264 ± 0.00335
x1 = 0.7004 | 0.259 ± 0.00335
x1 = 0.7204 | 0.253 ± 0.00311
x1 = 0.7404 | 0.245 ± 0.00311
x1 = 0.7604 | 0.236 ± 0.00311
x1 = 0.7804 | 0.226 ± 0.00287
x1 = 0.8004 | 0.214 ± 0.00287
x1 = 0.8204 | 0.2 ± 0.00263
x1 = 0.8404 | 0.185 ± 0.00263
x1 = 0.8603 | 0.169 ± 0.00234
x1 = 0.8803 | 0.15 ± 0.00217
x1 = 0.9002 | 0.13 ± 0.00201
x1 = 0.9202 | 0.108 ± 0.00184
x1 = 0.9401 | 0.084 ± 0.0017
x1 = 0.9601 | 0.0576 ± 0.0016
x1 = 0.98 | 0.0289 ± 0.00153

c1cc[nH]c1 [pyrrole] + CCCCO
[3]
Settings | excess molar enthalpy [kcal/mol]
x1 = 0.0262 | 0.00454 ± 0.000454
x1 = 0.0776 | 0.0248 ± 0.000621
x1 = 0.1154 | 0.0454 ± 0.000884
x1 = 0.1526 | 0.0679 ± 0.00112
x1 = 0.189 | 0.091 ± 0.00139
x1 = 0.2248 | 0.114 ± 0.00163
x1 = 0.2599 | 0.135 ± 0.00186
x1 = 0.2944 | 0.155 ± 0.00208
x1 = 0.3283 | 0.174 ± 0.00229
x1 = 0.3616 | 0.19 ± 0.00239
x1 = 0.3943 | 0.205 ± 0.00263
x1 = 0.4265 | 0.217 ± 0.00287
x1 = 0.4581 | 0.228 ± 0.00287
x1 = 0.4891 | 0.236 ± 0.00311
x1 = 0.5196 | 0.242 ± 0.00311
x1 = 0.5497 | 0.246 ± 0.00311
x1 = 0.5703 | 0.246 ± 0.00311
x1 = 0.5792 | 0.248 ± 0.00359
x1 = 0.5803 | 0.246 ± 0.00359
x1 = 0.6003 | 0.247 ± 0.00311
x1 = 0.6082 | 0.248 ± 0.00311
x1 = 0.6203 | 0.246 ± 0.00311
x1 = 0.6225 | 0.248 ± 0.00335
x1 = 0.6403 | 0.244 ± 0.00311
x1 = 0.6603 | 0.241 ± 0.00311
x1 = 0.6803 | 0.238 ± 0.00311
x1 = 0.7003 | 0.233 ± 0.00287
x1 = 0.7203 | 0.227 ± 0.00287
x1 = 0.7403 | 0.22 ± 0.00287
x1 = 0.7603 | 0.211 ± 0.00263
x1 = 0.7803 | 0.202 ± 0.00263
x1 = 0.8002 | 0.191 ± 0.00263
x1 = 0.8202 | 0.179 ± 0.00239
x1 = 0.8403 | 0.166 ± 0.00225
x1 = 0.8603 | 0.151 ± 0.0021
x1 = 0.8802 | 0.135 ± 0.00196
x1 = 0.9002 | 0.117 ± 0.00179
x1 = 0.9201 | 0.0972 ± 0.00165
x1 = 0.9401 | 0.0761 ± 0.00151
x1 = 0.9601 | 0.0532 ± 0.00141
x1 = 0.98 | 0.0285 ± 0.00134

c1cc[nH]c1 [pyrrole] + CCCO
[3]
Settings | excess molar enthalpy [kcal/mol]
x1 = 0.0299 | 0.00707 ± 0.000335
x1 = 0.0598 | 0.0144 ± 0.00043
x1 = 0.0897 | 0.0255 ± 0.000598
x1 = 0.1197 | 0.0392 ± 0.000765
x1 = 0.1497 | 0.0547 ± 0.000932
x1 = 0.1796 | 0.071 ± 0.00112
x1 = 0.2096 | 0.0877 ± 0.00131
x1 = 0.2396 | 0.104 ± 0.00148
x1 = 0.2696 | 0.12 ± 0.00167
x1 = 0.2996 | 0.136 ± 0.00184
x1 = 0.3296 | 0.15 ± 0.00198
x1 = 0.3596 | 0.163 ± 0.00213
x1 = 0.3896 | 0.175 ± 0.00227
x1 = 0.4197 | 0.185 ± 0.00239
x1 = 0.4497 | 0.193 ± 0.00239
x1 = 0.4652 | 0.199 ± 0.00263
x1 = 0.4797 | 0.2 ± 0.00263
x1 = 0.4902 | 0.205 ± 0.00263
x1 = 0.5202 | 0.211 ± 0.00263
x1 = 0.5502 | 0.215 ± 0.00263
x1 = 0.5803 | 0.217 ± 0.00287
x1 = 0.6103 | 0.218 ± 0.00287
x1 = 0.6403 | 0.216 ± 0.00263
x1 = 0.6703 | 0.212 ± 0.00263
x1 = 0.7003 | 0.206 ± 0.00263
x1 = 0.7303 | 0.198 ± 0.00263
x1 = 0.7603 | 0.188 ± 0.00239
x1 = 0.7903 | 0.175 ± 0.00229
x1 = 0.8203 | 0.159 ± 0.00213
x1 = 0.8503 | 0.14 ± 0.00194
x1 = 0.8802 | 0.119 ± 0.00174
x1 = 0.9101 | 0.0942 ± 0.00153
x1 = 0.9401 | 0.0658 ± 0.00136
x1 = 0.97 | 0.0338 ± 0.0012
